Assay results: PubChem BioAssay AID256 (DTP/NCI, 2004)
Where “and” joins values, the source holds several entries; their conditions need not be identical. Equal entries are not always repeated. Inconclusive results and toxic doses are left out. Rule for the calls: active = survival T/C of 150% or more; inactive = T/C below 125% in these data.

Test system: CD2F1 mice, L1210 leukemia ip, survival T/C
Experiment: NCI In Vivo Anticancer Drug Screen. Data for tumor model L1210 Leukemia (intraperitoneal) in CD2F1 (CDF1) mice
Settings: endpoint: mean survival time, higher = longer survival
Procedure, shortened: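 Read-out first: treated-group measurement over vehicle-control measurement, expressed as a ratio. Animals bore a transplanted tumor line and were dosed with compound or vehicle.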

[1] = dose: 75.0 mg/kg/injection, schedule: Q04DX003 (ip), vehicle: saline
[2] = dose: 150.0 mg/kg/injection, schedule: Q04DX003 (ip), vehicle: saline
[3] = dose: 300.0 mg/kg/injection, schedule: Q04DX003 (ip), vehicle: saline
[4] = dose: 100.0 mg/kg/injection, schedule: Q04DX003 (ip), vehicle: saline
[5] = dose: 200.0 mg/kg/injection, schedule: Q04DX003 (ip), vehicle: saline
[6] = dose: 400.0 mg/kg/injection, schedule: Q04DX003 (ip), vehicle: saline
[7] = dose: 100.0 mg/kg/injection, schedule: Q01DX001 (ip), vehicle: saline with Tween-80
[8] = dose: 200.0 mg/kg/injection, schedule: Q01DX001 (ip), vehicle: saline with Tween-80
[9] = dose: 400.0 mg/kg/injection, schedule: Q01DX001 (ip), vehicle: saline with Tween-80
[10] = dose: 100.0 mg/kg/injection, schedule: Q04DX003 (ip), vehicle: saline with Tween-80
[11] = dose: 200.0 mg/kg/injection, schedule: Q04DX003 (ip), vehicle: saline with Tween-80
[12] = dose: 400.0 mg/kg/injection, schedule: Q04DX003 (ip), vehicle: saline with Tween-80

Measured: T/C

COc1c(O)c2c(c3cc(C(=O)N4CCc5c4c(O)c(OC)c4[nH]c(C(=O)N6CC7CC78C6=CC(=O)c6[nH]cc(C)c68)cc54)[nH]c13)CCN2C(N)=O (stereo unspecified)
inactive: dose: 1.0 micrograms/kg/injection, schedule: Q01DX009 (ip), vehicle: other 116 % of control | dose: 4.4 micrograms/kg/injection, schedule: Q04DX003 (ip), vehicle: other 106 % of control | dose: 6.6 micrograms/kg/injection, schedule: Q04DX003 (ip), vehicle: other 104 % of control | dose: 10.0 micrograms/kg/injection, schedule: Q04DX003 (ip), vehicle: other 116 % of control | dose: 22.5 micrograms/kg/injection, schedule: Q04DX003 (ip), vehicle: other 122 % of control | dose: 30.0 micrograms/kg/injection, schedule: Q01DX009 (ip), vehicle: other 124 % of control | dose: 100.0 micrograms/kg/injection, schedule: Q04DX003 (ip), vehicle: other 101 % of control

C[N+]1(C)CCOC(O)(c2ccc(-c3ccccc3)cc2)C1 (stereo unspecified)
inactive: dose: 3.13 mg/kg/injection, schedule: Q04DX002 (ip), vehicle: saline 98 % of control | dose: 6.25 mg/kg/injection, schedule: Q04DX002 (ip), vehicle: saline 91 % of control

NC(=O)C(N)CCO (stereo unspecified)
inactive: dose: 75.0 mg/kg/injection, schedule: Q01DX009 (ip), vehicle: saline 92 % of control | [1] 97 % of control | dose: 150.0 mg/kg/injection, schedule: Q01DX009 (ip), vehicle: saline 102 % of control | [2] 95 % of control | dose: 300.0 mg/kg/injection, schedule: Q01DX009 (ip), vehicle: saline 97 % of control | [3] 95 % of control

CC(C)NC(=O)CCCCn1c(=O)c2ccccc2c(=O)n1C
inactive: dose: 25.0 mg/kg/injection, schedule: Q04DX003 (ip), vehicle: saline 96 % of control | dose: 50.0 mg/kg/injection, schedule: Q04DX003 (ip), vehicle: saline 96 % of control | [4] 98 % of control | [5] 113 % of control | [6] 104 % of control

CCOC1([N+](=O)[O-])c2ccccc2-c2nc3ccccc3cc21 (stereo unspecified)
inactive: dose: 200.0 mg/kg/injection, schedule: Q04DX003 (ip), vehicle: Klucel (hydroxypropylcellulose) (HPC) 97 % of control

Nc1nc2c(ncn2-c2ccc3ccccc3c2)c(=O)[nH]1
inactive: [7] 91 % of control | [8] 88 % of control | [9] 95 % of control

N=S(=O)(c1ccccc1)c1ccccc1
inactive: [7] 98 % of control | dose: 100.0 mg/kg/injection, schedule: Q04DX002 (ip), vehicle: saline with Tween-80 110 % of control | [8] 94 % of control | dose: 200.0 mg/kg/injection, schedule: Q04DX002 (ip), vehicle: saline with Tween-80 93 % of control | [9] 107 % of control

CCCN(CCC)C(=S)[S-].CCCN(CCC)C(=S)[S-].[Zn]
inactive: [1] 95 % of control | [2] 86 % of control | [3] 101 % of control

c1ccc(CCc2ccccn2)nc1
inactive: dose: 25.0 mg/kg/injection, schedule: Q04DX003 (ip), vehicle: saline with Tween-80 105 % of control | dose: 50.0 mg/kg/injection, schedule: Q04DX003 (ip), vehicle: saline with Tween-80 100 % of control | [10] 91 % of control and 103 % of control

CCCC(C)(CCC)OC(=O)Nc1cccc2ccccc12
inactive: [7] 92 % of control | [8] 92 % of control | [9] 92 % of control

CC(C)(C)OC(=O)NC(CSSCC(NC(=O)OC(C)(C)C)C(=O)O)C(=O)O (stereo unspecified)
inactive: [10] 92 % of control | [11] 92 % of control | [12] 90 % of control

Cc1c(C)c(Cl)c(C)c(C)c1Cl
inactive: dose: 5.0 mg/kg/injection, schedule: Q01DX009 (ip), vehicle: saline with Tween-80 98 % of control | dose: 5.0 mg/kg/injection, schedule: Q04DX003 (ip), vehicle: saline with Tween-80 100 % of control | dose: 10.0 mg/kg/injection, schedule: Q01DX009 (ip), vehicle: saline with Tween-80 104 % of control | dose: 10.0 mg/kg/injection, schedule: Q04DX003 (ip), vehicle: saline with Tween-80 100 % of control | dose: 20.0 mg/kg/injection, schedule: Q01DX009 (ip), vehicle: saline with Tween-80 98 % of control | dose: 20.0 mg/kg/injection, schedule: Q04DX003 (ip), vehicle: saline with Tween-80 105 % of control

CC(=O)[CH-]C(=O)C(=O)[CH-]C(C)=O.[Cu+2]
inactive: dose: 20.0 mg/kg/injection, schedule: Q01DX001 (ip), vehicle: saline with Tween-80 96 % of control | dose: 40.0 mg/kg/injection, schedule: Q01DX001 (ip), vehicle: saline with Tween-80 96 % of control | dose: 80.0 mg/kg/injection, schedule: Q01DX001 (ip), vehicle: saline with Tween-80 94 % of control

C#CC(OC(=O)NC(CCSC)C(=O)OC)(c1ccccc1)c1ccccc1 (stereo unspecified)
inactive: dose: 25.0 mg/kg/injection, schedule: Q01DX001 (ip), vehicle: saline with Tween-80 102 % of control | dose: 50.0 mg/kg/injection, schedule: Q01DX001 (ip), vehicle: saline with Tween-80 94 % of control | [7] 102 % of control

CC(C)CC(NC(=O)C(N)Cc1ccc(N(CCCl)CCCl)cc1)C(=O)O (stereo unspecified)
inactive: dose: 1.0 mg/kg/injection, schedule: Q04DX003 (ip), vehicle: saline with Tween-80 106 % of control | dose: 2.0 mg/kg/injection, schedule: Q04DX003 (ip), vehicle: saline with Tween-80 111 % of control | dose: 4.0 mg/kg/injection, schedule: Q04DX003 (ip), vehicle: saline with Tween-80 113 % of control | dose: 8.0 mg/kg/injection, schedule: Q04DX003 (ip), vehicle: saline with Tween-80 118 % of control | dose: 32.0 mg/kg/injection, schedule: Q04DX003 (ip), vehicle: saline with Tween-80 112 % of control | dose: 64.0 mg/kg/injection, schedule: Q04DX003 (ip), vehicle: saline with Tween-80 121 % of control

CCCCN(CCCC)CCCN1C(=O)c2ccccc2C1=O
inactive: dose: 1.9 mg/kg/injection, schedule: Q01DX009 (ip), vehicle: saline 97 % of control | dose: 3.7 mg/kg/injection, schedule: Q01DX009 (ip), vehicle: saline 107 % of control | dose: 7.5 mg/kg/injection, schedule: Q01DX009 (ip), vehicle: saline 100 % of control | dose: 15.0 mg/kg/injection, schedule: Q01DX009 (ip), vehicle: saline 87 % of control | dose: 30.0 mg/kg/injection, schedule: Q01DX009 (ip), vehicle: saline 89 % of control and 105 % of control

CCCCCCCCCCCCCCC/C(=C\c1ccc2ccccc2c1)[N+](=O)[O-]
inactive: dose: 75.0 mg/kg/injection, schedule: Q01DX001 (ip), vehicle: other 95 % of control | dose: 150.0 mg/kg/injection, schedule: Q01DX001 (ip), vehicle: other 89 % of control | dose: 300.0 mg/kg/injection, schedule: Q01DX001 (ip), vehicle: other 102 % of control

O=[N+]([O-])c1c(Cl)cc(Cl)c(-c2c(Cl)cc(Cl)c([N+](=O)[O-])c2Cl)c1Cl
inactive: dose: 12.5 mg/kg/injection, schedule: Q01DX009 (ip), vehicle: water 97 % of control | dose: 25.0 mg/kg/injection, schedule: Q01DX009 (ip), vehicle: water 100 % of control | dose: 50.0 mg/kg/injection, schedule: Q01DX009 (ip), vehicle: water 94 % of control | dose: 100.0 mg/kg/injection, schedule: Q01DX009 (ip), vehicle: water 95 % of control | dose: 200.0 mg/kg/injection, schedule: Q01DX009 (ip), vehicle: water 94 % of control

COC(=O)CSC(=S)N(C)C
inactive: [10] 98 % of control | [11] 100 % of control | [12] 90 % of control

O=C1CCC2(c3ccccc3)C1C2c1ccccc1 (stereo unspecified)
inactive: [10] 110 % of control | [11] 112 % of control | [12] 101 % of control

CC(=O)NCCCN1CCOCC1
inactive: [4] 96 % of control | [5] 104 % of control | [6] 98 % of control
